How the values were obtained:
Plasmodium falciparum [1] = experiment: NOVARTIS: Inhibition of Plasmodium falciparum W2 (drug-resistant) proliferation in erythrocyte-based infection assay; type: functional, organism-based; conditions: read-out: EC50
Plasmodium falciparum [2] = experiment: NOVARTIS: Inhibition of Plasmodium falciparum 3D7 (drug-susceptible) proliferation in erythrocyte-based infection assay; type: functional, organism-based
[3] = NOVARTIS: Cytotoxicity against human hepatocellular carcinoma cell line (Huh7); type: toxicity, cell-based, Huh-7; conditions: Huh7 cells (hepatocellular carcinoma cell line)

| Structure (SMILES) | EC50 (Plasmodium falciparum [1]; Plasmodium falciparum, W2) | EC50 (Plasmodium falciparum [2]; Plasmodium falciparum, 3D7) | CC50 [3] | EC50 (Plasmodium falciparum [1]) | EC50 (Plasmodium falciparum [2]) |
| --- | --- | --- | --- | --- | --- |
| N#Cc1cc2nc3c(nc2cc1C#N)-c1ccccc1C3=O | 2560 nM | 6970 nM | 33200 nM |  |  |
| O=C(NC1CC1)c1ccc(N2CCC(Cc3ccccc3)CC2)c([N+](=O)[O-])c1 | 619 nM | 212 nM | 53700 nM |  |  |
| CNc1ccccc1C(=O)N(C)CCc1ccccc1 | 68.3 nM | > 1250 nM | > 10000 nM |  |  |
| c1ccc(-c2nc(Nc3ccncc3)cc(-c3cccnc3)n2)cc1 | 1440 nM | 884 nM | > 10000 nM |  |  |
| CCOC(=O)C1=C(C)NC2=C(C(=O)C(C(=O)OCC)C(c3ccccc3OC)C2)C1c1ccc([N+](=O)[O-])cc1 (configuration not stated) | 102 nM | 114 nM | > 100000 nM |  |  |
| Cc1cc(Nc2cccc(C(F)(F)F)c2)nc(N)n1 | 1860 nM | 676 nM | 39600 nM |  |  |
| COC(=O)c1cn([C@H]2C[C@@H](C(=O)NCc3ccc(OC)cc3)N(Cc3ccsc3)C2)nn1 | 200 nM | > 1710 nM | > 7380 nM |  |  |
| CN(CCCNc1ccnc2cc(Cl)ccc12)C(=O)c1cccc(Br)c1 | 137 nM | 59.6 nM | 9590 nM |  |  |
| O=C(NC1CC1)C1CCN(c2cccc3c2C(=O)N(Cc2cccc(C(F)(F)F)c2)C3=O)CC1 | 1110 nM | 2160 nM | > 100000 nM |  |  |
| COc1cc(/C=C(\C#N)c2nc3ccccc3[nH]2)ccc1OCc1ccc(C)cc1 | 1470 nM | 1050 nM | > 10000 nM |  |  |
| CC(C)N1CC[C@@H](N2CCN(c3cccc(C(F)(F)F)c3)CC2)[C@@H](CCC(=O)N(C)C2CCN(C)CC2)C1 | 285 nM | > 1040 nM | 5130 nM |  |  |
| CC1=CC(=O)OC[C@]23C[C@H](O)C(C)=C[C@H]2O[C@@H]2C[C@@H](OC(=O)C=CC=CC(=O)OCC1)[C@@]3(C)[C@]21CO1 |  |  | 83.7 nM | 1.77 nM | 2.44 nM |
| O=C1C2C(C(=O)N1c1cccc3ccccc13)C1C=CC2C12CC2 (configuration not stated) | 1090 nM | 6590 nM | > 100000 nM |  |  |
| c1ccc2[nH]c(Sc3ncnc4sc5c(c34)CCC5)nc2c1 | 909 nM | 6840 nM | > 100000 nM |  |  |
| CC1(C)CC(=O)C2=C(C1)NC(=O)CC2c1ccc(C(C)(C)C)cc1 (configuration not stated) | > 1010 nM | > 1250 nM | > 10000 nM |  |  |
| Cc1ccc(-c2c[n+](CC(=O)c3ccccc3Cl)c3n2CCC3)cc1 | 1110 nM | 1010 nM | > 95900 nM |  |  |
| N#CC(=Cc1cn(Cc2ccc(Cl)cc2Cl)c2ccccc12)c1nc2ccccc2[nH]1 | 1020 nM | 270 nM | > 100000 nM |  |  |
| CCCCCCCCCC[n+]1c(C)n(CC)c2cc(Cl)c(Cl)cc21 | 490 nM | 613 nM | 21000 nM |  |  |
| CC(C)CNC(=O)c1cnc(NCCCN2CCCCC2C)nc1NC1CCCC1 (configuration not stated) | 52.8 nM | 910 nM | > 10000 nM |  |  |
| Cn1c(=O)[nH]c(=O)c2c1nc(N1CCCCCC1)n2CC(O)COc1ccc([N+](=O)[O-])cc1 (configuration not stated) | 1860 nM | > 12500 nM | > 100000 nM |  |  |
| COc1ccc2cc3[n+](cc2c1OC)CCc1cc2c(cc1-3)OCO2 [BERBERINE CHLORIDE] | 442 nM | 218 nM | > 100000 nM |  |  |
| CC(C)(C)C1=NN(CC(=O)NCCc2c[nH]cn2)C(=O)c2cc3ccccc3n2C1 | > 614 nM | > 1250 nM | > 13200 nM |  |  |
| COCOc1ccc(-c2nc(-c3ccncc3)cnc2N)cc1 | > 1440 nM | 1430 nM | > 10000 nM |  |  |

| Structure (SMILES) | EC50 (Plasmodium falciparum [1]; Plasmodium falciparum, W2) | EC50 (Plasmodium falciparum [2]; Plasmodium falciparum, 3D7) | CC50 [3] | EC50 (Plasmodium falciparum [1]) | EC50 (Plasmodium falciparum [2]) |
| --- | --- | --- | --- | --- | --- |
| Cc1ccc(-c2nc3cc(NC(=O)c4ccc(Cl)cc4Cl)ccc3o2)cc1 | > 1050 nM | > 864 nM | > 10000 nM |  |  |
| CC(=O)c1ccc(NC(=O)CN(C)S(=O)(=O)c2ccc3[nH]c4c(c3c2)CCCC4)cc1 | 3580 nM | > 12500 nM | 66900 nM |  |  |
| CC1CN(C)C(C)CC1=NOC(=O)c1ccc(Cl)c(Cl)c1 (configuration not stated) | > 848 nM | > 1250 nM | > 10000 nM |  |  |
| OC(CNC1CCCCC1)Cn1c2ccc(Br)cc2c2cc(Br)ccc21 (configuration not stated) | 102 nM | 451 nM | 6060 nM |  |  |
| COc1ccc2nc3cc(Cl)ccc3c(NCCN(CCN)CCN)c2c1 | 254 nM | 808 nM | > 10000 nM |  |  |
| C[n+]1c(/C=C/c2ccc(Cl)c(Cl)c2)ccc2ccccc21 | 390 nM | 295 nM | > 10000 nM |  |  |
| Cc1ccc2nc(C(C#N)=Cc3cn(Cc4ccc(Cl)cc4Cl)nc3-c3ccccc3)[nH]c2c1 | 1590 nM | 1820 nM | > 100000 nM |  |  |
| COc1cccc(-c2ccc(O)c(CNCc3ccccc3OC)c2)n1 | 939 nM | 1090 nM | > 10000 nM |  |  |
| COc1ccc(C2CC(=O)C3=C(C2)NC(C)=C(C(=O)OC2CCCC2)C3c2ccc(F)cc2)cc1OC (configuration not stated) | 19.3 nM | 12.6 nM | 11600 nM |  |  |
| CCN(CC)c1nc(NN=Cc2cccc([N+](=O)[O-])c2OC)nc(Nc2ccccc2)n1 | 294 nM | 244 nM | > 100000 nM |  |  |
| COc1ccc(-c2ccc(C=C3C(=O)NC(=S)NC3=O)o2)cc1Cl | > 1250 nM | > 1040 nM | > 10000 nM |  |  |
| C[n+]1ccccc1/C=C/C1=C(c2ccccc2)Oc2ccccc2O1 | 249 nM | 133 nM | 14900 nM |  |  |
| N#Cc1c(N)nc(C(Cl)(Cl)Cl)nc1-c1ccccc1 | 184 nM | 498 nM | > 100000 nM |  |  |
| CCC(C)NC(=O)c1c[nH]c2ccc(S(=O)(=O)N(C)c3cc(C)ccc3C)cc2c1=O (configuration not stated) | 2170 nM | 5220 nM | 59300 nM |  |  |
| CN(C)CCNc1c2c(nc3ccccc13)CCC2 | 242 nM | 579 nM | 61400 nM |  |  |
| COc1ccc(-c2c[n+](Cc3ccc(Cl)cc3Cl)c3n2CCC3)cc1 | 667 nM | 189 nM | 31800 nM |  |  |
| Cc1ccc2c(c1)NC(c1ccc(F)cc1)C1=C(CC(c3ccccc3)CC1=O)N2 (configuration not stated) | 635 nM | 833 nM | > 100000 nM |  |  |
| O=C(NCCCCNc1ccnc2cc(Cl)ccc12)c1ccccc1Br | 494 nM | 468 nM | > 10000 nM |  |  |
| Cc1ccc(C(=O)N(C)CCCNc2ccnc3cc(Cl)ccc23)cc1 | 122 nM | 141 nM | 5370 nM |  |  |
| Cc1ccccc1CSc1ccc(-c2cccs2)nn1 | 963 nM | > 1060 nM | > 10000 nM |  |  |
| CCNC1=C(C(=O)c2ccccc2)N(CC(=O)c2ccc(Br)cc2)S(=O)(=O)c2ccccc21 | 966 nM | > 1250 nM | > 10000 nM |  |  |
| CCOC(=O)c1ccc(NC(=O)CSc2nc(NCc3ccccc3)c3ccccc3n2)cc1 | > 836 nM | > 1140 nM | > 10000 nM |  |  |
| COc1ccc(NC(=O)c2c(Cl)nc(Cl)c([N+](=O)[O-])c2C)cc1 | 2060 nM | > 1250 nM | > 10000 nM |  |  |

| Structure (SMILES) | EC50 (Plasmodium falciparum [1]; Plasmodium falciparum, W2) | EC50 (Plasmodium falciparum [2]; Plasmodium falciparum, 3D7) | CC50 [3] | EC50 (Plasmodium falciparum [1]) | EC50 (Plasmodium falciparum [2]) |
| --- | --- | --- | --- | --- | --- |
| O=C(COC(c1ccccc1)c1cccnc1)NCCNC(=O)OCc1ccccc1 (configuration not stated) | 941 nM | 967 nM | > 10000 nM |  |  |
| COc1cc(C=CC(=O)Nc2c3c(nn2-c2ccc(F)cc2)CSC3)cc(OC)c1OC | 381 nM | 918 nM | > 100000 nM |  |  |
| O=C(c1cc2nc(-c3ccccc3)cc(C(F)(F)F)n2n1)N1CCN(Cc2ccccc2)CC1 | 4590 nM | 2920 nM | > 100000 nM |  |  |
| COCCN1C(=O)c2ccccc2C(C(=O)Nc2cccc(C(F)(F)F)c2)C1c1cccs1 (configuration not stated) | 2650 nM | 3830 nM | > 100000 nM |  |  |
| Cc1cc(Br)cc(Cl)c1OC(=O)c1ccno1 | 3000 nM | > 12500 nM | > 100000 nM |  |  |
| Cc1c(Cl)cccc1NC(=S)N(CCCN(C)c1ccccc1)Cc1cccn1Cc1ccc(Cl)cc1 | > 10000 nM | > 7300 nM | > 100000 nM |  |  |
| CCCCCn1c(C)[n+](CCCC)c2cc(Cl)c(Cl)cc21 | 1160 nM | 1240 nM | > 100000 nM |  |  |
| COc1cccc(C2Sc3ccccc3NC3=C2C(=O)c2ccccc23)c1 (configuration not stated) | 362 nM | 577 nM | > 100000 nM |  |  |
| CCN1CCN(Cc2ccc(N(CC)CC)cc2)CC1 | 3080 nM | > 12500 nM | > 100000 nM |  |  |
| Cc1cccn2c(=O)c3cc(C(=O)NCc4ccco4)c(=N)n(CCc4ccccc4)c3nc12 | 865 nM | 388 nM | > 100000 nM |  |  |
| O=C(Nc1ccc(NC(=O)c2ccc(C3=NCCCN3)cc2)cc1)Nc1ccc(C2=NCCCN2)cc1 | 148 nM | 115 nM | > 10000 nM |  |  |
| CC(=O)N(C)C1=C(N2CCOCC2)C(=O)c2ccccc2C1=O | 288 nM | 254 nM | 590 nM |  |  |
| CC1CCN(S(=O)(=O)c2ccc(C(=O)NCc3ccco3)cc2)CC1 | 1090 nM | 894 nM | > 100000 nM |  |  |
| CCOC(=O)c1[nH]c(C)c(CNc2cccc(F)c2)c1C | 1660 nM | 1060 nM | > 10000 nM |  |  |
| CN1CCC(N2CCC(Oc3cccc(C(=O)NCCC4=CCCCC4)c3)CC2)CC1 | 944 nM | 780 nM | 20700 nM |  |  |
| CC(C)C(=O)N1CCOc2c(cc(-c3csc4ccccc34)cc2OCCc2ccccn2)C1 | 125 nM | 183 nM | 50600 nM |  |  |
| CCc1ccc(C(=O)N(C)CCCNc2ccnc3cc(Cl)ccc23)cc1 | 250 nM | 337 nM | 2860 nM |  |  |
| COC(=O)CC(NS(=O)(=O)c1ccc(OC)cc1)c1ccc2c(c1)OCO2 (configuration not stated) | < 23.4 nM | 1460 nM | > 10300 nM |  |  |
| O=C(c1cccs1)N1CCN(c2ccc([N+](=O)[O-])c(NC3CC3)c2)CC1 | 1370 nM | 2090 nM | > 100000 nM |  |  |
| NC(=O)Cc1ccccc1 | 9500 nM | > 12500 nM | > 100000 nM |  |  |
| Fc1ccc(-n2cc(-c3ccccc3)[n+]3c2SCC3)cc1 | > 911 nM | > 965 nM | > 10000 nM |  |  |
| O=C(Nc1cc(C(F)(F)F)cc(C(F)(F)F)c1)Nc1ccc2nnsc2c1 | 4360 nM | 6370 nM | 19400 nM |  |  |
| O=C(NNc1cccc(F)n1)C(F)(F)F | 340 nM | 670 nM | > 10000 nM |  |  |
